Columns and labels:
Assay in all cases: Antiproliferative activity, SRB method
Format in all cases: cell-based, human
MCF-7 = settings: Homo sapiens, MCF7, 10 µM, 72 h, read-out: mean proliferation inhibition at highest concentration used, MCF-7
From the text: (§1) MDA-MB-231 (human breast cancer), MCF10A (human, nontumorigenic mammary gland epithelial cells), A549 (human nonsmall-cell lung cancer), UMUC-3 (human bladder cancer) and LoVo (human colon cancer) cell lines were obtained from the American Type Culture Collection (ATCC; Rockville, Maryland, USA). The MCF-7 cell line (human breast cancer) was obtained from the European Collection of Cell Cultures (ECACC; Salisbury, UK). All cell lines were maintained at the Hirszfeld Institute of Immunology and Experimental Therapy (HIIET), Wrocław, Poland. MDA-MB-231 cells were cultured in RPMI1640 medium (Thermo Fisher Scientific, Warszawa, Poland) supplemented with 2 mM L-glutamine, 1 mM sodium pyruvate, and 10% fetal bovine serum (all from Sigma-Aldrich, Poznań, Poland). The MCF10A cell line was cultured in Ham’s F12 medium with glutamine (Corning) supplemented with 5% (v/v) fetal bovine serum (FBS), 5% (v/v) horse serum, 10 µg/mL insulin, 0.05 µg/mL cholera toxin, 0.5 µg/mL hydrocortisone, and 20 ng/mL hEGF (all from Sigma-Aldrich). A549 and LoVo cells were cultured in a 1:1 (v/v) mixture of RPMI1640 and Opti-MEM (both from HIIET) supplemented with 5% (v/v) FBS and 2 mM L-glutamine. The UMUC-3 cell line was cultured in high glucose DMEM (Thermo Fisher Scientific) supplemented with 10% FBS and 2 mM Lglutamine. The MCF-7 line was cultured in Eagle’s minimal essential medium (EMEM; Thermo Fisher Scientific) supplemented with 10% (v/v) FBS, 2 mM L-glutamine, 1% (v/v) nonessential amino acids, and 8 µg/mL insulin (all from Sigma-Aldrich). All culture media contained 100 µg/mL streptomycin (Sigma-Aldrich) and 100 U/mL penicillin (Polfa Tarchomin SA, Warszawa, Poland). The cells were grown at 37 °C in a humid atmosphere saturated with 5% CO2.
(§2) Antiproliferative activity was assessed in six cell lines utilizing the sulforhodamine B (SRB) method. Briefly, cells were seeded in 96-well plates (Sarstedt, Warszawa, Poland) at a density of 5 × 10^3 cells/well, and after overnight incubation, the cells were exposed to compounds at various concentrations. After 72 h, the plates were fixed with 50% (v/v) TCA (all from Sigma-Aldrich), washed with tap water, and the precipitated proteins were labeled with 0.1% (w/v) SRB solution in 1% (v/v) AcOH. Next, the plates were washed with 1% (v/v) AcOH, and the remaining SRB dye was solubilized with 10 mM unbuffered TRIS solution. The absorbance was measured using a Biotek Hybrid H4 reader (BioTek Instruments, VT, USA) at 540 nm. Crude results were analyzed using a previously described method, and the results are expressed as the IC50 (compound concentration that reduced cell growth by 50%) compared to the vehicletreated control (0.1% (v/v) DMSO). The samples were analyzed in triplicate, and each experiment was repeated at least three times.

LoVo = settings: Homo sapiens, LoVo, 10 µM, 72 h, read-out: mean proliferation inhibition at highest concentration used, LoVo
From the text: as §1, §2

UMUC-3 = settings: Homo sapiens, UMUC3, 10 µM, 72 h, read-out: mean proliferation inhibition at highest concentration used, UMUC-3
From the text: as §1, §2

A549 = settings: Homo sapiens, A549, 10 µM, 72 h, read-out: mean proliferation inhibition at highest concentration used, A549
From the text: as §1, §2

MCF-10A = settings: Homo sapiens, MCF-10A, 10 µM, 72 h, read-out: mean proliferation inhibition at highest concentration used, MCF-10A
From the text: as §1, §2

MDA-MB-231 = settings: Homo sapiens, MDA-MB-231, 72 h, read-out: IC50 ± SD (n = 3) MDA-MB-231
From the text: as §1, §2

Structure (SMILES)	inhibition at 10 µM (MCF-7) [%]	inhibition at 10 µM (LoVo) [%]	inhibition at 10 µM (UMUC-3) [%]	inhibition at 10 µM (A549) [%]	inhibition at 10 µM (MCF-10A) [%]	IC50 (MDA-MB-231) [nM]
CN[C@@H](C)C(=O)N[C@H](C(=O)N1CCC[C@H]1C(=O)NC(Cc1ccccc1)P(=O)(Oc1ccccc1)Oc1ccccc1)C(C)C (stereo partly drawn) [Compound 41, diphenyl (1-((S)-1-((S)-3-methyl-2-((S)-2-(methylamino)propanamido)butanoyl)pyrrolidine-2-carboxamido)-2-phenylethyl)phosphonate]	20	11	5	10	2	2580 ± 320
CN[C@@H](C)C(=O)N[C@H](C(=O)N1CCC[C@H]1C(=O)NC(Cc1ccccc1)P(=O)(Oc1ccccc1)Oc1ccccc1)C1CCCCC1 (stereo partly drawn) [Compound 42, diphenyl (1-((S)-1-((S)-2-cyclohexyl-2-((S)-2-(methylamino)propanamido)acetyl)pyrrolidine-2-carboxamido)-2-phenylethyl)phosphonate]	16	12	6	23	2	2460 ± 380

— publication PMC7497679, “Structure-based design, synthesis, and evaluation of the biological activity of novel phosphoroorganic small molecule IAP antagonists” (Investigational New Drugs, 2020)
